Where two headings read alike, the source gives them in different places.
Columns and labels:
EGFR L858R = EGFR L858R (Homo sapiens, UniProt P00533, L858R); assay: EGFR degradation, Total EGFR (L858R-specific) HTRF, NCI-H3255; format: cell-based; design: NCI-H3255 (harboring EGFR heterozygous L858R mutation); host or cells: NCI-H3255; conditions: NCI-H3255 cells, 6 hours, Total EGFR HTRF, read-out: H3255 EGFR DC50
Excerpt: NCI-H1975 (harboring EGFR heterozygous L858R-T790M mutations) and NCI-H3255 (harboring EGFR heterozygous L858R mutation) were purchased from ATCC and NCI, respectively. NCI-H1975+CS (harboring EGFR heterozygous L858R-T790M-C797S mutations) was generated using CRISPR technology to introduce the additional C797S mutation by Horizon Discovery. A431 (harboring EGFR wildtype) was purchased from ATCC. RPMI 1640 no-phenol red medium and fetal bovine serum (FBS) were purchased from Gibco (Grand Island, NY, USA). Cell culture flasks and 384-well microplates were acquired from VWR (Radnor, PA, USA). Phosphorylated (pY1068) EGFR and Total EGFR (using L858R-specific detection antibody and pan-EGFR antibody for EGFR mutant cell lines and EGFR wild-type cell lines, respectively) HTRF assay kits were purchased from Cisbio (Bedford, MA, USA).
Degradation of EGFR protein containing L858R mutation or wild-type was determined based on quantification of FRET signal using a Total EGFR (L858R-specific or pan-EGFR detecting) HTRF assay kit. Phospho-EGFR (pEGFR) inhibition was determined based on quantification of FRET signal using a pY1068 EGFR HTRF assay kit. In separate assay plates, test compounds were added to the 384-well plate from a top concentration of 10 μM with 11 points, half log titration in duplicates. For each assay, 12.5 uL of cells suspended in assay media (RPMI 1640 no-phenol red medium+10% FBS) at cell densities indicated for each cell line in Table 8 below were dispensed using a multi-channel pipette to 384-well low volume white HTRF microplates containing a duplicate concentration range of test compounds and DMSO controls. The plates were kept at 37° C. with 5% CO2 for 6 hours and then incubated with either phospho EGFR or Total EGFR HTRF detection antibodies according to the cell line and EGFR mutant being assayed. Cells treated in the absence of the test compound were the negative control. Positive control was set by wells containing all reagents but no cells. FRET signal was acquired on EnVision™ Multilabel Reader (PerkinElmer, Santa Clara, CA, USA). Compound concentration that achieves 50% degradation and inhibition was reported as DC50 and IC50, respectively.

EGFR L858R-T790M = target: T1, EGFR L858R-T790M (Homo sapiens, UniProt P00533, L858R/T790M); assay: EGFR degradation, Total EGFR (L858R-specific) HTRF, NCI-H1975; format: cell-based; conditions: NCI-H1975 cells, 6 hours, Total EGFR HTRF, read-out: H1975 EGFR DC50
T1 construct: NCI-H1975 (harboring EGFR heterozygous L858R-T790M mutations); host or cells: NCI-H1975
T1 sequence (P00533 25-1210 T790M/L858R): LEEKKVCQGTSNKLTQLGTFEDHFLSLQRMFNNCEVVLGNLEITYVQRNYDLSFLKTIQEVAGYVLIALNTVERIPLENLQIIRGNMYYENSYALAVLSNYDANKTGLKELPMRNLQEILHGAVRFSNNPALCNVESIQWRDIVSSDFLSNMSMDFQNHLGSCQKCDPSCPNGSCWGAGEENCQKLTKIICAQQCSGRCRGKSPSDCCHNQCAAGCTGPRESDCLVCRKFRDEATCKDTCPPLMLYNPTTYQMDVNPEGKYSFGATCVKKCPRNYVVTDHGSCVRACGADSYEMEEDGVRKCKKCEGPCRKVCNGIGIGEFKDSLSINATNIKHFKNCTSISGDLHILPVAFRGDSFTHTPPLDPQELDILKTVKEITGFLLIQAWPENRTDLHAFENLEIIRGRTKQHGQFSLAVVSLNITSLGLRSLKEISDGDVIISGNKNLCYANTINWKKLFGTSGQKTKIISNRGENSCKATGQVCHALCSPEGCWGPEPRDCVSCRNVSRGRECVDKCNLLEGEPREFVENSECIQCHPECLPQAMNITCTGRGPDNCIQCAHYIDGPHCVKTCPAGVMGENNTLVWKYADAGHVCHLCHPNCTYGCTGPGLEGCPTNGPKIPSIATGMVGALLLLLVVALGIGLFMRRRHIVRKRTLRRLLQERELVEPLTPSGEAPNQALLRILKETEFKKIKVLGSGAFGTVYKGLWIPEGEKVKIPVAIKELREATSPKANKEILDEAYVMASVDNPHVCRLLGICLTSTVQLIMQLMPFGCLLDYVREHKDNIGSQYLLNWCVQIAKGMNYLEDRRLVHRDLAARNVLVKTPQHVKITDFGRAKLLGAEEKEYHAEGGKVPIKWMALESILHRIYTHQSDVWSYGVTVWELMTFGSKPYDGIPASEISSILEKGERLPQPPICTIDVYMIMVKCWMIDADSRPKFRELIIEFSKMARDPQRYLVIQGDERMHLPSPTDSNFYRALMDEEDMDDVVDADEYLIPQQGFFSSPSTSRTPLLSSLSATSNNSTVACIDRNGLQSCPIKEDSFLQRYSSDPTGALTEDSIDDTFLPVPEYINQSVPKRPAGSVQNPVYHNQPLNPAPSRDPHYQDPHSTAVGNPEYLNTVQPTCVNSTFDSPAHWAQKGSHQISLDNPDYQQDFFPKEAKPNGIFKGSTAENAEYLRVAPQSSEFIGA
How it was run: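 Cells in RPMI 1640 + 10% FBS treated 6 h at 37°C with compound, 11-point half-log titration from 10 μM top, in duplicate. pY1068 and total EGFR read by HTRF (pan-EGFR antibody for wild-type A431; L858R-specific for mutants); IC50 for phospho inhibition, DC50 for 50% degradation.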

Sequence of EGFR L858R (P00533 25-1210 L858R): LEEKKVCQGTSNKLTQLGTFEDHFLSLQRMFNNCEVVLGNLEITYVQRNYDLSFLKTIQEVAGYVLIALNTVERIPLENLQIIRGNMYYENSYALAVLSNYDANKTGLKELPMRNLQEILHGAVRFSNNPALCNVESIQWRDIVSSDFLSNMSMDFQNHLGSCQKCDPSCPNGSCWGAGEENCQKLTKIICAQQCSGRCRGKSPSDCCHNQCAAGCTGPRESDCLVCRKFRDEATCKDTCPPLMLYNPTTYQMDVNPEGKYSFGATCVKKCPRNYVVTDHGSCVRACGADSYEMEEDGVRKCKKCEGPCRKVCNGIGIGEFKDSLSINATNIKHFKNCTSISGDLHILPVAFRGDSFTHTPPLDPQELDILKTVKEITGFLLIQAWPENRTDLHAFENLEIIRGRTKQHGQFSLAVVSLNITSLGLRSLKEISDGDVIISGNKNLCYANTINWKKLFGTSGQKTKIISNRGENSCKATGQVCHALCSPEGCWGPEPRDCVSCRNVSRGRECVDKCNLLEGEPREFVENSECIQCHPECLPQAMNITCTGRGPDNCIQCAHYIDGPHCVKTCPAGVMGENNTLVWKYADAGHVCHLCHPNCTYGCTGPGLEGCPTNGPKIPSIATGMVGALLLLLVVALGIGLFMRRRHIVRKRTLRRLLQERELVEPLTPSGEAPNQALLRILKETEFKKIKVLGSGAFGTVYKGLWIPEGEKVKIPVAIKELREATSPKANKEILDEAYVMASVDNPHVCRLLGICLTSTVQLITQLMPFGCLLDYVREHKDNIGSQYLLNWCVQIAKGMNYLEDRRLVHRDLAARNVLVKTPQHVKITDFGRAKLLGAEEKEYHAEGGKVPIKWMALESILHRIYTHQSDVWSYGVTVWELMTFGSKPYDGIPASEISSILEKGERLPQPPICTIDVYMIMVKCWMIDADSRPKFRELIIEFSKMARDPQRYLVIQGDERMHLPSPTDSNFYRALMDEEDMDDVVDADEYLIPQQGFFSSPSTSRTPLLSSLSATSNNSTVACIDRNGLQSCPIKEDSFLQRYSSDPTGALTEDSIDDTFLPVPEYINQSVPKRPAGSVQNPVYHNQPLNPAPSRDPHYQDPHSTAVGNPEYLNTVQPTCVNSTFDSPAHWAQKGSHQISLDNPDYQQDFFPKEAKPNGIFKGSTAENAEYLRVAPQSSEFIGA

Structure (SMILES): O=C1CCC(Nc2ccc(C3CCN(CC(=O)N4CCN(Cc5ccc(-c6cc(F)c7c(c6)C(=O)N(C(C(=O)Nc6nccs6)c6ncn8c6CCC8)C7)cc5)CC4)CC3)cc2)C(=O)N1 (centres unmarked) [Compound 6, 2-(6,7-dihydro-5H-pyrrolo[1,2-c]imidazol-1-yl)-2-[6-[4-[[4-[2-[4-[4-[(2,6-dioxo-3-piperidyl)amino]phenyl]-1-piperidyl]acetyl]piperazin-1-yl]methyl]phenyl]-4-fluoro-1-oxo-isoindolin-2-yl]-N-thiazol-2-yl-acetamide]
- DC50 (EGFR L858R; Table 9A): < 50 nM
- DC50 (EGFR L858R-T790M; Table 9A): < 50 nM

Structure (SMILES): O=C1CC[C@H](Nc2ccc(C3CCN(CC(=O)N4CC5(CCN(c6ccc(-c7cc(F)c8c(c7)C(=O)N(C(C(=O)Nc7nccs7)c7ncn9c7CCC9)C8)cc6)CC5)C4)CC3)c(F)c2)C(=O)N1 (stereo partly drawn) [Compound 46, 2-(6,7-dihydro-5H-pyrrolo[1,2-c]imidazol-1-yl)-2-(6-(4-(2-(2-(4-(4-(((S)-2,6-dioxopiperidin-3-yl)amino)-2-fluorophenyl)piperidin-1-yl)acetyl)-2,7-diazaspiro[3.5]nonan-7-yl)phenyl)-4-fluoro-1-oxoisoindolin-2-yl)-N-(thiazol-2-yl)acetamide]
- DC50 (EGFR L858R; Table 9A): 50 to 150 nM
- DC50 (EGFR L858R-T790M; Table 9A): 50 to 150 nM

Structure (SMILES): O=C1CC[C@@H](Nc2ccc(C3CCN(CC(=O)N4CCN(c5ccc(-c6cc(F)c7c(c6)C(=O)N(C(C(=O)Nc6nccs6)c6ncn8c6CCC8)C7)cc5)CC4)CC3)cc2)C(=O)N1 (stereo partly drawn) [Compound 175, 2-(6,7-dihydro-5H-pyrrolo[1,2-c]imidazol-1-yl)-2-[6-[4-[4-[2-[4-[4-[[(3R)-2,6-dioxo-3-piperidyl]amino]phenyl]-1-piperidyl]acetyl]piperazin-1-yl]phenyl]-4-fluoro-1-oxo-isoindolin-2-yl]-N-thiazol-2-yl-acetamide]
- DC50 (EGFR L858R; Table 9B): < 50 nM
- DC50 (EGFR L858R-T790M; Table 9B): < 50 nM

Structure (SMILES): Cn1nc(N2CCC(=O)NC2=O)c2ccc(C3CCN(CC(=O)N4CCN(c5ccc(-c6cc(F)c7c(c6)C(=O)N(C(C(=O)Nc6nccs6)c6ncn8c6C[C@@H](F)C8)C7)cc5)CC4)CC3)cc21 (stereo partly drawn) [Compound 45, 2-[6-[4-[4-[2-[4-[3-(2,4-dioxohexahydropyrimidin-1-yl)-1-methyl-indazol-6-yl]-1-piperidyl]acetyl]piperazin-1-yl]phenyl]-4-fluoro-1-oxo-isoindolin-2-yl]-2-[(6R)-6-fluoro-6,7-dihydro-5H-pyrrolo[1,2-c]imidazol-1-yl]-N-thiazol-2-yl-acetamide]
- DC50 (EGFR L858R; Table 9A): < 50 nM
- DC50 (EGFR L858R-T790M; Table 9A): < 50 nM

Structure (SMILES): O=C1CC[C@H](Nc2ccc(C3CCN(CC(=O)N4CCC(Cc5ccc(-c6cc(F)c7c(c6)C(=O)N(C(C(=O)Nc6nccs6)c6ncn8c6CCC8)C7)cc5)CC4)CC3)c(F)c2)C(=O)N1 (stereo partly drawn) [Compound 60, 2-(6,7-dihydro-5H-pyrrolo[1,2-c]imidazol-1-yl)-2-[6-[4-[[1-[2-[4-[4-[[(3S)-2,6-dioxo-3-piperidyl]amino]-2-fluoro-phenyl]-1-piperidyl]acetyl]-4-piperidyl]methyl]phenyl]-4-fluoro-1-oxo-isoindolin-2-yl]-N-thiazol-2-yl-acetamide]
- DC50 (EGFR L858R; Table 9A): < 50 nM
- DC50 (EGFR L858R-T790M; Table 9A): 50 to 150 nM

Structure (SMILES): Cn1nc(N2CCC(=O)NC2=O)c2ccc(C3CCN(CC(=O)N4CCN(c5ccc(-c6cc(F)c7cn(C(C(=O)Nc8nccs8)c8ncn9c8CCC9)nc7c6)cn5)CC4)CC3)cc21 (centres unmarked) [Compound 67, 2-(6,7-dihydro-5H-pyrrolo[1,2-c]imidazol-1-yl)-2-[6-[6-[4-[2-[4-[3-(2,4-dioxohexahydropyrimidin-1-yl)-1-methyl-indazol-6-yl]-1-piperidyl]acetyl]piperazin-1-yl]-3-pyridyl]-4-fluoro-indazol-2-yl]-N-thiazol-2-yl-acetamide]
- DC50 (EGFR L858R; Table 9A): 50 to 150 nM
- DC50 (EGFR L858R-T790M; Table 9A): < 50 nM

Structure (SMILES): O=C1CC[C@H](Nc2ccc(C3CCN(CC(=O)N4C[C@H]5C[C@@H]4CN5c4ccc(-c5cc(F)c6c(c5)C(=O)N(C(C(=O)Nc5nccs5)c5ncn7c5CCC7)C6)cc4)CC3)c(F)c2)C(=O)N1 (stereo partly drawn) [Compound 80, 2-(6,7-dihydro-5H-pyrrolo[1,2-c]imidazol-1-yl)-2-(6-(4-((1R,4R)-5-(2-(4-(4-(((S)-2,6-dioxopiperidin-3-yl)amino)-2-fluorophenyl)piperidin-1-yl)acetyl)-2,5-diazabicyclo[2.2.1]heptan-2-yl)phenyl)-4-fluoro-1-oxoisoindolin-2-yl)-N-(thiazol-2-yl)acetamide]
- DC50 (EGFR L858R; Table 9B): < 50 nM
- DC50 (EGFR L858R-T790M; Table 9B): 50 to 150 nM

Structure (SMILES): O=C1CC[C@H](Nc2ccc(C3CCN(CC(=O)N4CCN(c5ccc(-c6cc(F)c7cn(C(C(=O)Nc8nccs8)c8ncn9c8CCC9)nc7c6)cn5)CC4)CC3)c(F)c2)C(=O)N1 (stereo partly drawn) [Compound 68, 2-(6,7-dihydro-5H-pyrrolo[1,2-c]imidazol-1-yl)-2-(6-(6-(4-(2-(4-(4-(((S)-2,6-dioxopiperidin-3-yl)amino)-2-fluorophenyl)piperidin-1-yl)acetyl)piperazin-1-yl)pyridin-3-yl)-4-fluoro-2H-indazol-2-yl)-N-(thiazol-2-yl)acetamide]
- DC50 (EGFR L858R; Table 9A): < 50 nM
- DC50 (EGFR L858R-T790M; Table 9A): < 50 nM

Structure (SMILES): O=C1CCC(Nc2cc(F)c(N3CCC(O)(CC(=O)N4CC5(C4)CN(c4ccc(-c6cc(F)c7c(c6)C(=O)N(C(C(=O)Nc6nccs6)c6ncn8c6CCC8)C7)cc4)C5)CC3)c(F)c2)C(=O)N1 (centres unmarked) [Compound 103, 2-(6,7-dihydro-5H-pyrrolo[1,2-c]imidazol-1-yl)-2-[6-[4-[2-[2-[1-[4-[(2,6-dioxo-3-piperidyl)-amino]-2,6-difluoro-phenyl]-4-hydroxy-4-piperidyl]acetyl]-2,6-diazaspiro[3.3]hept-an-6-yl]-phenyl]-4-fluoro-1-oxo-isoindolin-2-yl]-N-thiazol-2-yl-acetamide]
- DC50 (EGFR L858R; Table 9B): < 50 nM
- DC50 (EGFR L858R-T790M; Table 9B): < 50 nM

Structure (SMILES): O=C1CCC(Nc2ccc(N3CCC(O)(CC(=O)N4CC5(C4)CN(c4ccc(-c6cc(F)c7c(c6)C(=O)N(C(C(=O)Nc6nccs6)c6ncn8c6CCC8)C7)cc4)C5)CC3)c(C(F)F)c2)C(=O)N1 (centres unmarked) [Compound 104, 2-(6-(4-(6-(2-(1-(2-(difluoromethyl)-4-((2,6-dioxopiperidin-3-yl)amino)phenyl)-4-hydroxypiperidin-4-yl)acetyl)-2,6-diazaspiro[3.3]heptan-2-yl)phenyl)-4-fluoro-1-oxoisoindolin-2-yl)-2-(6,7-dihydro-5H-pyrrolo[1,2-c]imidazol-1-yl)-N-(thiazol-2-yl)acetamide]
- DC50 (EGFR L858R; Table 9B): < 50 nM
- DC50 (EGFR L858R-T790M; Table 9B): < 50 nM

Structure (SMILES): O=C1CC[C@H](Nc2ccc(C3CCN(CC(=O)N4CCC(c5ccc(-c6cc(F)c7c(c6)C(=O)N(C(C(=O)Nc6nccs6)c6ncn8c6CCC8)C7)cc5)CC4)CC3)cc2)C(=O)N1 (stereo partly drawn) [Compound 22, 2-(6,7-dihydro-5H-pyrrolo[1,2-c]imidazol-1-yl)-2-(6-(4-(1-(2-(4-(4-(((S)-2,6-dioxopiperidin-3-yl)amino)phenyl)piperidin-1-yl)acetyl)piperidin-4-yl)phenyl)-4-fluoro-1-oxoisoindolin-2-yl)-N-(thiazol-2-yl)acetamide]
- DC50 (EGFR L858R; Table 9A): < 50 nM
- DC50 (EGFR L858R-T790M; Table 9A): < 50 nM

Structure (SMILES): O=C1CCC(Nc2ccc(C3CCN(CC(=O)N4CCN(c5ccc(-c6cc(F)c7c(c6)C(=O)N(C(C(=O)Nc6nccs6)c6ncn8c6CCC8)C7)cc5)CC4)CC3)c(F)c2)C(=O)N1 (centres unmarked) [Compound 180, 2-(6,7-dihydro-5H-pyrrolo[1,2-c]imidazol-1-yl)-2-[6-[4-[4-[2-[4-[4-[(2,6-dioxo-3-piperidyl)amino]-2-fluoro-phenyl]-1-piperidyl]acetyl]piperazin-1-yl]phenyl]-4-fluoro-1-oxo-isoindolin-2-yl]-N-thiazol-2-yl-acetamide]
- DC50 (EGFR L858R; Table 9B): < 50 nM
- DC50 (EGFR L858R-T790M; Table 9B): < 50 nM

Structure (SMILES): O=C1CC[C@H](Nc2ccc(C3CCN(CC(=O)N4CCN(c5ccc(-c6cc(F)c7c(c6)C(=O)N(C(C(=O)Nc6nccs6)c6ncn8c6CCC8)C7)cn5)CC4)CC3)c(F)c2)C(=O)N1 (some centres unmarked) [Compound 27]
- DC50 (EGFR L858R; Table 9A): < 50 nM
- DC50 (EGFR L858R-T790M; Table 9A): < 50 nM

— patent US20240158418A1 (C4 Therapeutics, Inc., priority 2021, published 2024)
